These compounds were tested against T1, Human plasma kallikrein (Homo sapiens, UniProt P03952) (assay: Kallikrein Assay (fluorogenic substrate hydrolysis, AFC release)). Conditions: purified Human plasma kallikrein 0.5 nM; substrate Acetyl-K—P—R-AFC 100 mM; 50 mM HEPES pH 7.4.
T1 construct: yields a heavy chain (371 amino acids) and a light chain (248 amino acids); purchased Enzyme Research Laboratories
T1 sequence (P03952 391-638 limits assumed): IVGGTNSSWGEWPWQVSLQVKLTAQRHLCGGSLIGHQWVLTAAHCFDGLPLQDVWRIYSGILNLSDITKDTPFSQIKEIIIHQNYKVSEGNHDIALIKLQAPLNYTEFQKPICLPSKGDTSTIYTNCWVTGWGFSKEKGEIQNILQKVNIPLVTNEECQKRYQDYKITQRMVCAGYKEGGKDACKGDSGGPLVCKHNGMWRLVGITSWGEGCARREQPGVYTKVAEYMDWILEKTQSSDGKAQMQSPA
T1 sequence (P03952 20-390 partner limits assumed): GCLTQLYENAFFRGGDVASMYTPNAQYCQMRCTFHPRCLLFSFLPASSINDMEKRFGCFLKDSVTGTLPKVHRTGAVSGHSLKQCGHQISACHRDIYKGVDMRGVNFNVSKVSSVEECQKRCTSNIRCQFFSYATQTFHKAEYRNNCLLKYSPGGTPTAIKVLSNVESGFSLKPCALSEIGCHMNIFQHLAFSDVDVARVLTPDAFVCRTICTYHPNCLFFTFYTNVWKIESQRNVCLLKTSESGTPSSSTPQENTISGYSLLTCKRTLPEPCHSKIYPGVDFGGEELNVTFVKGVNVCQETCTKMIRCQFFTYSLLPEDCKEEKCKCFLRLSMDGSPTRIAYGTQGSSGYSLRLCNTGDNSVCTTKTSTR
Format: biochemical
How it was run: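 Enzyme–inhibitor equilibrated before substrate dilution to ≤0.2 Km; human plasma kallikrein at 0.5 nM final, Acetyl-K-P-R-AFC substrate, HEPES pH 7.4 buffer with NaCl, CaCl2, PEG 8000, at room temperature or 37° C. Linear-phase fluorescence rate gives percent inhibition, four-parameter logistic IC50, then Cheng-Prusoff Ki.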
An IC50 of 153 nM was found for `Cc1cc(N2C[C@H]3C[C@H]3C2=O)cnc1C(C)n1cc(C(=O)N[C@H]2C[C@@H](c3cc(Cl)ccc3C#N)C2)nn1` (single isomer, unassigned) [Example 90, N-((cis)-3-(5-chloro-2-cyanophenyl)cyclobutyl)-1-((R or S)-1-(3-methyl-5-((1R,5S)-2-oxo-3-azabicyclo[3.1.0]hexan-3-yl)pyridin-2-yl)ethyl)-1H-1,2,3-triazole-4-carboxamide] in this work. An IC50 of 1.5 nM was found for `Cc1cc(N2C[C@H]3C[C@H]3C2=O)cnc1C(C)n1cc(C(=O)N[C@H]2C[C@@H](c3cc(Cl)ccc3C#N)C2)nn1` (single isomer, unassigned) [Example 91, N-((cis)-3-(5-chloro-2-cyanophenyl)cyclobutyl)-1-((S or R)-1-(3-methyl-5-((1R,5S)-2-oxo-3-azabicyclo[3.1.0]hexan-3-yl)pyridin-2-yl)ethyl)-1H-1,2,3-triazole-4-carboxamide] in this work. An IC50 of 38.1 nM was found for `CC(c1ncc(N2C[C@H]3C[C@H]3C2=O)cc1F)n1cc(C(=O)N[C@H]2C[C@@H](c3cc(Cl)ccc3C#N)C2)nn1` (single isomer, unassigned) [Example 92, N-((cis)-3-(5-chloro-2-cyanophenyl)cyclobutyl)-1-((R or S)-1-(3-fluoro-5-((1R,5S)-2-oxo-3-azabicyclo[3.1.0]hexan-3-yl)pyridin-2-yl)ethyl)-1H-1,2,3-triazole-4-carboxamide] in this work. An IC50 of 4.3 nM was found for `CC(c1ncc(N2C[C@H]3C[C@H]3C2=O)cc1F)n1cc(C(=O)N[C@H]2C[C@@H](c3cc(Cl)ccc3C#N)C2)nn1` (single isomer, unassigned) [Example 93, N-((cis)-3-(5-chloro-2-cyanophenyl)cyclobutyl)-1-((S or R)-1-(3-fluoro-5-((1R,5S)-2-oxo-3-azabicyclo[3.1.0]hexan-3-yl)pyridin-2-yl)ethyl)-1H-1,2,3-triazole-4-carboxamide] in this work. An IC50 of 178 nM was found for `Cc1nc(N2C[C@H]3C[C@H]3C2=O)ccc1C(C)n1cc(C(=O)N[C@H]2C[C@@H](c3cc(Cl)ccc3C#N)C2)nn1` (single isomer, unassigned) [Example 94, N-((cis)-3-(5-chloro-2-cyanophenyl)cyclobutyl)-1-((R or S)-1-(2-methyl-6-((1R,5S)-2-oxo-3-azabicyclo[3.1.0]hexan-3-yl)pyridin-3-yl)ethyl)-1H-1,2,3-triazole-4-carboxamide] in this work. An IC50 of 10.7 nM was found for `Cc1nc(N2C[C@H]3C[C@H]3C2=O)ccc1C(C)n1cc(C(=O)N[C@H]2C[C@@H](c3cc(Cl)ccc3C#N)C2)nn1` (single isomer, unassigned) [Example 95, N-((cis)-3-(5-chloro-2-cyanophenyl)cyclobutyl)-1-((S or R)-1-(2-methyl-6-((1R,5S)-2-oxo-3-azabicyclo[3.1.0]hexan-3-yl)pyridin-3-yl)ethyl)-1H-1,2,3-triazole-4-carboxamide] in this work. An IC50 of 0.2 nM was found for `Cc1c(C(C)n2cc(C(=O)N[C@H]3C[C@@H](c4cc(Cl)ccc4C#N)C3)nn2)cnc(N2C[C@H]3C[C@H]3C2=O)c1F` (single isomer, unassigned) [Example 96, N-((cis)-3-(5-chloro-2-cyanophenyl)cyclobutyl)-1-((R or S)-1-(5-fluoro-4-methyl-6-((1R,5S)-2-oxo-3-azabicyclo[3.1.0]hexan-3-yl)pyridin-3-yl)ethyl)-1H-1,2,3-triazole-4-carboxamide] in this work. An IC50 of 4.4 nM was found for `Cc1c(C(C)n2cc(C(=O)N[C@H]3C[C@@H](c4cc(Cl)ccc4C#N)C3)nn2)cnc(N2C[C@H]3C[C@H]3C2=O)c1F` (single isomer, unassigned) [Example 97, N-((cis)-3-(5-chloro-2-cyanophenyl)cyclobutyl)-1-((S or R)-1-(5-fluoro-4-methyl-6-((1R,5S)-2-oxo-3-azabicyclo[3.1.0]hexan-3-yl)pyridin-3-yl)ethyl)-1H-1,2,3-triazole-4-carboxamide] in this work. An IC50 of 27.5 nM was found for `Cc1ccc(C#N)c([C@H]2C[C@@H](NC(=O)c3cn(C(C)c4cnc(N5C[C@H]6C[C@H]6C5=O)c(C)c4C)nn3)C2)n1` (single isomer, unassigned) [Example 98, N-((cis)-3-(3-cyano-6-methylpyridin-2-yl)cyclobutyl)-1-((R or S)-1-(4,5-dimethyl-6-((1R,5S)-2-oxo-3-azabicyclo[3.1.0]hexan-3-yl)pyridin-3-yl)ethyl)-1H-1,2,3-triazole-4-carboxamide] in this work. An IC50 of 0.6 nM was found for `Cc1ccc(C#N)c([C@H]2C[C@@H](NC(=O)c3cn(C(C)c4cnc(N5C[C@H]6C[C@H]6C5=O)c(C)c4C)nn3)C2)n1` (single isomer, unassigned) [Example 99, N-((cis)-3-(3-cyano-6-methylpyridin-2-yl)cyclobutyl)-1-((S or R)-1-(4,5-dimethyl-6-((1R,5S)-2-oxo-3-azabicyclo[3.1.0]hexan-3-yl)pyridin-3-yl)ethyl)-1H-1,2,3-triazole-4-carboxamide] in this work. An IC50 of 1.8 nM was found for `COc1cc(C(C)n2cc(C(=O)N[C@H]3C[C@@H](c4cc(Cl)ccc4C#N)C3)nn2)cnc1N1C[C@H]2C[C@H]2C1=O` (single isomer, unassigned) [Example 101, N-((cis)-3-(5-chloro-2-cyanophenyl)cyclobutyl)-1-((R or S)-1-(5-methoxy-6-((1R,5S)-2-oxo-3-azabicyclo[3.1.0]hexan-3-yl)pyridin-3-yl)ethyl)-1H-1,2,3-triazole-4-carboxamide] in this work. An IC50 of 3.2 nM was found for `COc1cc(C(C)n2cc(C(=O)N[C@H]3C[C@@H](c4cc(Cl)ccc4C#N)C3)nn2)cnc1N1C[C@H]2C[C@H]2C1=O` (single isomer, unassigned) [Example 102, N-((cis)-3-(5-chloro-2-cyanophenyl)cyclobutyl)-1-((S or R)-1-(5-methoxy-6-((1R,5S)-2-oxo-3-azabicyclo[3.1.0]hexan-3-yl)pyridin-3-yl)ethyl)-1H-1,2,3-triazole-4-carboxamide] in this work. An IC50 of 2.1 nM was found for `CC(c1cnc(N2C[C@H]3C[C@H]3C2=O)c(F)c1)n1cc(C(=O)N[C@H]2C[C@@H](c3cc(Cl)ccc3C#N)C2)nn1` (single isomer, unassigned) [Example 103, N-((cis)-3-(5-chloro-2-cyanophenyl)cyclobutyl)-1-((R or S)-1-(5-fluoro-6-((1R,5S)-2-oxo-3-azabicyclo[3.1.0]hexan-3-yl)pyridin-3-yl)ethyl)-1H-1,2,3-triazole-4-carboxamide] in this work. An IC50 of 4.3 nM was found for `CC(c1cnc(N2C[C@H]3C[C@H]3C2=O)c(F)c1)n1cc(C(=O)N[C@H]2C[C@@H](c3cc(Cl)ccc3C#N)C2)nn1` (single isomer, unassigned) [Example 104, N-((cis)-3-(5-chloro-2-cyanophenyl)cyclobutyl)-1-((S or R)-1-(5-fluoro-6-((1R,5S)-2-oxo-3-azabicyclo[3.1.0]hexan-3-yl)pyridin-3-yl)ethyl)-1H-1,2,3-triazole-4-carboxamide] in this work. An IC50 of 0.6 nM was found for `COc1cc(C(C)n2cc(C(=O)N[C@H]3C[C@@](C)(c4cc(Cl)ccc4C#N)C3)nn2)cnc1N1C[C@H]2C[C@H]2C1=O` (single isomer, unassigned) [Example 105, N-((cis)-3-(5-chloro-2-cyanophenyl)-3-methylcyclobutyl)-1-((R or S)-1-(5-methoxy-6-((1R,5S)-2-oxo-3-azabicyclo[3.1.0]hexan-3-yl)pyridin-3-yl)ethyl)-1H-1,2,3-triazole-4-carboxamide] in this work. An IC50 of 2.2 nM was found for `COc1cc(C(C)n2cc(C(=O)N[C@H]3C[C@@](C)(c4cc(Cl)ccc4C#N)C3)nn2)cnc1N1C[C@H]2C[C@H]2C1=O` (single isomer, unassigned) [Example 106, N-((cis)-3-(5-chloro-2-cyanophenyl)-3-methylcyclobutyl)-1-((S or R)-1-(5-methoxy-6-((1R,5S)-2-oxo-3-azabicyclo[3.1.0]hexan-3-yl)pyridin-3-yl)ethyl)-1H-1,2,3-triazole-4-carboxamide] in this work. An IC50 of 4.8 nM was found for `CC(c1cnc(N2C[C@H]3C[C@H]3C2=O)c(N)c1)n1cc(C(=O)N[C@H]2C[C@@H](c3cc(Cl)ccc3C#N)C2)nn1` (single isomer, unassigned) [Example 107, 1-((R or S)-1-(5-amino-6-((1R,5S)-2-oxo-3-azabicyclo[3.1.0]hexan-3-yl)pyridin-3-yl)ethyl)-N-((cis)-3-(5-chloro-2-cyanophenyl)cyclobutyl)-1H-1,2,3-triazole-4-carboxamide] in this work. An IC50 of 6.5 nM was found for `CC(c1cnc(N2C[C@H]3C[C@H]3C2=O)c(N)c1)n1cc(C(=O)N[C@H]2C[C@@H](c3cc(Cl)ccc3C#N)C2)nn1` (single isomer, unassigned) [Example 108, 1-((S or R)-1-(5-amino-6-((1R,5S)-2-oxo-3-azabicyclo[3.1.0]hexan-3-yl)pyridin-3-yl)ethyl)-N-((cis)-3-(5-chloro-2-cyanophenyl)cyclobutyl)-1H-1,2,3-triazole-4-carboxamide] in this work. An IC50 of 0.2 nM was found for `Cc1nc(C(C)n2cc(C(=O)N[C@H]3C[C@@](C)(c4cc(Cl)ccc4C#N)C3)nn2)cnc1N1C[C@H]2C[C@H]2C1=O` (single isomer, unassigned) [Example 109, N-((cis)-3-(5-chloro-2-cyanophenyl)-3-methylcyclobutyl)-1-((R or S)-1-(6-methyl-5-((1R,5S)-2-oxo-3-azabicyclo[3.1.0]hexan-3-yl)pyrazin-2-yl)ethyl)-1H-1,2,3-triazole-4-carboxamide] in this work. An IC50 of 1.1 nM was found for `Cc1nc(C(C)n2cc(C(=O)N[C@H]3C[C@@](C)(c4cc(Cl)ccc4C#N)C3)nn2)cnc1N1C[C@H]2C[C@H]2C1=O` (single isomer, unassigned) [Example 110, N-((cis)-3-(5-chloro-2-cyanophenyl)-3-methylcyclobutyl)-1-((S or R)-1-(6-methyl-5-((1R,5S)-2-oxo-3-azabicyclo[3.1.0]hexan-3-yl)pyrazin-2-yl)ethyl)-1H-1,2,3-triazole-4-carboxamide] in this work.
